Our source for the IC50 values is patent publication US10202399B2, “Dihydroxy aromatic heterocyclic compound” (Takeda Pharmaceutical Company Limited, priority 2011, dated 2019).

Assay [1] deals with recombinant human DAAO protein (Homo sapiens (Human), UniProt P14920). Put plainly: DAAO inhibitory activity test (H2O2/Amplex red fluorescence). The format is biochemical. As to conditions: D-alanine substrate, Amplex red fluorescence. As for the experimental part:
The DAAO inhibitory activity was measured by assaying the amount of hydrogen peroxide (H2O2) produced by reacting DAAO protein with flavin adenine dinucleotide (FAD) and D-alanine. The amount of H2O2 was determined by measuring the fluorescence generated on conversion of Amplex red (manufactured by Invitrogen Co.) into resorufin by the reaction of H2O2 with horseradish peroxidase (HRP).
Escherichia coli strain BL21(DE3) (manufactured by Novagen) was transformed with the constructed human DAAO expression vector, inoculated into LB culture medium containing kanamycin at a final concentration of 20 μg/mL, and shake-cultured at 37° C. overnight. The multiplied transformant was inoculated into Terrific Broth containing kanamycin at a final concentration of 20 μg/mL, and shake-cultured at 37° C. until it reached OD600=3.0. Thereafter, the culture was cooled to 30° C., and expression was induced with 1 mM IPTG. After 20 hours, bacterial pellets were recovered by centrifugation.
The bacterial pellets recovered as above were suspended in a lysis buffer (17 mM sodium pyrophosphate buffer pH 8.3, 100 μM FAD, 1 mM sodium benzoate, 1 mM PMSF, 14 mM β-mercaptoethanol, 0.2 mg/mL lysozyme) and the bacteria were fractured by sonication. The sonicated liquid was centrifuged and the supernatant was recovered. […]

Assay [2] deals with HEK293 cells that stably express human DAAO (Homo sapiens (Human), UniProt P14920). Put plainly: Inhibitory activity test at cellular level using DAAO-expressing cells. In kind it is cell-based. The procedure: HEK293 cells that stably express human DAAO were suspended in Cellbanker solution at 5×10^6 cells/ml and cryopreserved at −80° C. At the time of measurement, the cells were centrifuged at 1000 rpm for one min and the Cellbanker solution was removed. […] A 4% DMSO buffer solution (50 mM sodium phosphate [pH 7.5], 0.02% CHAPS) of the test compound (4 μL) was added to a 384-well black, low volume plate, the cell suspension (4 μL) was added, and the mixture was incubated at room temperature for 15 min.
Reverse transcription was performed on human normal kidney tissue-derived RNA (Clontech Corp.) using reverse transcriptase (SuperScriptIII, Life Technologies Corporation) and oligo (dT) primer (Life Technologies Corporation) according to the protocol of the kit (Life Technologies Corporation) and cDNA was synthesized. Then, using human DAAO_HindIII_F represented by Sequence No. 1 and human DAAO_BamHI_R represented by Sequence No. 2, a PCR reaction (35 cycles of 98° C. for 15 sec, 55° C. for 15 sec and 68° C. for 1 min 30 sec) was performed using DNA polymerase (PrimeSTAR, TAKARA BIO INC.) and cDNA obtained as above as a template. […] The PCR product was cloned in a cloning vector (pCR2.1-TOPO Cloning Kit, Life Technologies Corporation). The sequence of the insert was determined by the dideoxy sequence method (BigDye Terminator v3.1 Cycle Sequencing Kit; Life Technologies Corporation). […]

The IC50 is the concentration at which inhibition is half-maximal. In the case of `O=c1[nH]nc(COc2ccc(Cl)cc2)cc1O` [Example 254], the IC50 in assay [1] turned out to be 2.7 nM; in assay [2], 6.3 nM.
